Columns and labels:
[1] = test system: Human colon carcinoma cells HCT-116; assay: Cytotoxic activity on culture of human colon carcinoma cells HCT-116 (Alamar Blue); type: cell-based; conditions: HCT-116 cells, 72 hours after addition of compounds, Alamar Blue viability
Method: (§1) The activity of the compounds as histone deacetylase (HDAC) inhibitors was measured using an in vitro acetylation assay. The compounds were then evaluated as inhibitors of proliferation of human tumor cell cultures.
24 hours after seeding, the compounds at different concentrations are added. […] 72 hours after addition of the compounds, cell viability is measured by means of the dye Alamar Blue.

[2] = test system: histone deacetylase (HDAC), nuclear extract of Hela cells; assay: Deacetylase activity on nuclear extract of HeLa cells (Fluor de Lys kit); type: biochemical, human; conditions: percent inhibition relative to control without inhibitor, compound at 0.1 μM
Method: as §1
Deacetylase Activity on Nuclear Extract of Hela Cells (Human Cervical Cancer Cell)
The assay (Fluor de Lys™ kit, BioMol) is divided into two steps: in the first step the substrate which comprises an acetylated lysine residue is reacted with the nuclear extract (HeLa) containing the enzymatic activity in the presence and absence of inhibitors. In the second step a fluorogenic reagent is added which highlights the deacetylated residues. A reduction in fluorescence is obtained where there has been inhibition of the deacetylase activity. The result is finally expressed as percent inhibition relative to the control without inhibitor at a concentration of 0.1 μM.

Row | SMILES | IC50 ([1]; Homo sapiens, HCT-116, 72 h) [nM] | % inhib. 0.1 μM [2] [%] | IC50 [1] [nM]
1 | O=C(CCCC1CCN(C(=O)Nc2cccc3ccccc23)CC1)NO [Ex 35, 4-(3-Hydroxycarbamoyl-propyl)-piperidine-1-carboxylic acid 1-naphthylamide] | 710 | 55 | 
2 | O=C(CCCC1CCN(C(=O)Nc2cc3ccccc3s2)CC1)NO [Ex 195, N-(benzo[b]thiophene)-4-(4-(hydroxyamino)-4-oxobutyl)piperidine-1-carboxamide] |  | 42 | 400
3 | O=C(CCCC1CCN(C(=O)NCc2ccccc2)CC1)NO [Ex 7, 4-(3-Hydroxycarbamoyl-propyl)-piperidine-1-carboxylic acid benzylamide] | 300 | 59 | 
4 | O=C(CCCC1CCN(C(=O)Nc2ccc(-c3ccccn3)cc2)CC1)NO [Ex 151, 4-(3-Hydroxycarbamoyl-propyl)-piperidine-1-carboxylic acid (4-pyridin-2-yl-phenyl)-amide] | 100 | 50 | 

From patent US20080207694A1, “Hydroxamates as Histone Deacetylase Inhibitors and Pharmaceutical Formulations Containing Them” (priority 2005, published 2008)
